Reference: BindingDB's records for patent US8962648 (Oncotherapy Science, 2015)
“And” between values parts separate entries of the source, which are not always exact repeats. Equal values may be shown once.

These compounds were tested against T1, Lymphokine-activated killer T-cell-originated protein kinase (Homo sapiens, UniProt Q96KB5) (assay: Kinase Assay). Settings: pH 7.4; 25 °C.
T1 sequence (Q96KB5 whole entry): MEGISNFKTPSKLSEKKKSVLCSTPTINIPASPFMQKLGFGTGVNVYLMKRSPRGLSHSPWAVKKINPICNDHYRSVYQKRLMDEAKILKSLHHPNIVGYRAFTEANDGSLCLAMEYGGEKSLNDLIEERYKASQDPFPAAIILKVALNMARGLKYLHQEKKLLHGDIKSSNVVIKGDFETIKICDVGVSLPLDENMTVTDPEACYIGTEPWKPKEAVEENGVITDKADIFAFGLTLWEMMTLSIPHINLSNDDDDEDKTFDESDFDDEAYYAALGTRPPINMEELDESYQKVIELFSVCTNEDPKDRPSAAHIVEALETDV
Experimental: PBK activity was determined in the presence or absence of compounds using fluorescein isothiocyanate-labeled (FITC-labeled) histone H3 peptide as a substrate. […] The serially diluted compounds, 0.8 ng/micro-L PBK (Carna Biosciences) and 100 nM FITC-labeled histone H3 peptide were reacted in a reaction buffer (20 mM HEPES, 0.01% Tween-20, 0.3 mM MgCl2, 2 mM dithiothreitol, 50 micro-M ATP, pH 7.4) at room temperature for 1 hour. The reaction was stopped by the addition of three fold assay volume of progressive binding solution. Following 0.5 hour incubation at room temperature.
Work on `CC(c1ccc(-c2cccc3[nH]c(=O)c4sccc4c23)cc1)N(C)C` (stereo not given) [US8962648, 346] yielded an IC50 of 9.2 nM.
With `Cc1cc(-c2c(O)ccc3[nH]c(=O)c4sccc4c23)ccc1NS(C)(=O)=O` [US8962648, 254] the IC50 was 3 nM.
`NCC1(c2ccc(-c3c(O)ccc4[nH]c(=O)c5sccc5c34)cc2)CC1` [US8962648, 348] showed an IC50 of 1.9 nM.
Work on `CCC(CC)(CN)c1ccc(-c2c(O)ccc3[nH]c(=O)c4sccc4c23)cc1` [US8962648, 1209] yielded an IC50 of 1.8 nM.
`NCc1ccc(-c2c(O)cc(F)c3[nH]c(=O)c4sccc4c23)cc1` [US8962648, 256] gave an IC50 of 2.5 nM.
`O=c1[nH]c2ccc(O)c(C3=CCNCC3)c2c2ccsc12` [US8962648, 84] gave an IC50 of 0.78 nM.
Work on `NCC1(c2ccc(-c3c(O)ccc4[nH]c(=O)c5sccc5c34)cc2)CCC1` [US8962648, 1300] yielded an IC50 of 1.7 nM.
Work on `CN(C)CC1(c2ccc(-c3c(O)ccc4[nH]c(=O)c5sccc5c34)cc2)CC1` [US8962648, 379] yielded an IC50 of 3.6 nM.
For `COc1cc(Br)c2[nH]c(=O)c3sccc3c2c1-c1ccc(C2(CN)CC2)cc1` [US8962648, 1391], the IC50 was 70 nM.
`COc1ccc2[nH]c(=O)c3sccc3c2c1-c1ccc([C@@H](C)N)cc1` [US8962648, 274] was tested, and the IC50 was 3.8 nM.
Compound `CC(C)NCc1ccc(-c2c(O)ccc3[nH]c(=O)c4sccc4c23)cc1` [US8962648, 229] has an IC50 of 4.2 nM.
For `CN(C)C1CCCN(CCCc2c(O)ccc3[nH]c(=O)c4sccc4c23)C1` (stereo not given) [US8962648, 298], the IC50 was 83 nM.
`CCC(CN)c1ccc(-c2c(O)cc(C)c3[nH]c(=O)c4sccc4c23)cc1` (stereo not given) [US8962648, 1291] showed an IC50 of 15 nM.
`C[C@H](c1ccc(-c2c(O)ccc3[nH]c(=O)c4sccc4c23)cc1)N(C)C` [US8962648, 272] gave an IC50 of 0.88 nM.
Compound `CC(O)c1ccc(-c2c(O)ccc3[nH]c(=O)c4sccc4c23)cc1` (stereo not given) [US8962648, 313] has an IC50 of 2 nM.
`N#CCc1ccc(-c2c(O)ccc3[nH]c(=O)c4sccc4c23)cc1` [US8962648, 81] showed an IC50 of 12 nM.
`CC[C@@H](N)c1ccc(-c2c(O)cc(Cl)c3[nH]c(=O)c4sccc4c23)cc1` [US8962648, 1159] was tested, and the IC50 was 26 nM.
In the case of `NCc1ccc(-c2c(O)ccc3[nH]c(=O)c4sccc4c23)cc1` [US8962648, 73], the IC50 is reported as 0.63 nM and 0.38 nM.
In the case of `O=c1[nH]c2ccc(O)c(-c3ccc(S(=O)(=O)NCCBr)cc3)c2c2ccsc12` [US8962648, 210], the IC50 is reported as 11.3 nM.
Compound `CNC[C@H](C)c1ccc(-c2c(OC)ccc3[nH]c(=O)c4sccc4c23)cc1` [US8962648, 1189] has an IC50 of 3 nM.
`CCC(C#N)c1ccc(-c2c(O)ccc3[nH]c(=O)c4sccc4c23)cc1` (stereo not given) [US8962648, 1162] showed an IC50 of 13 nM.
For `COc1ccc2[nH]c(=O)c3sccc3c2c1-c1ccc(CCN)c(F)c1` [US8962648, 265], the IC50 was 3.8 nM.
`Cc1cc(O)c(-c2ccc(C3(CN)CCC3)cc2)c2c1[nH]c(=O)c1sccc12` [US8962648, 1290] was tested, and the IC50 was 10 nM.
`NCC1(c2ccc(-c3c(O)cc(Cl)c4[nH]c(=O)c5sccc5c34)cc2)CC1` [US8962648, 1116] was tested, and the IC50 was 22 nM.
`CNCCc1ccc(-c2c(O)cc(C)c3[nH]c(=O)c4sccc4c23)cc1F` [US8962648, 1258] showed an IC50 of 25 nM.
Compound `CC[C@H](NC)c1ccc(-c2c(O)ccc3[nH]c(=O)c4sccc4c23)cc1` [US8962648, 1148] has an IC50 of 1.3 nM.
For `CC(C)(CN)c1ccc(-c2c(O)cc(Cl)c3[nH]c(=O)c4sccc4c23)cc1` [US8962648, 1260], the IC50 was 75 nM.
In the case of `CC(N)c1ccc(-c2c(O)ccc3[nH]c(=O)c4sccc4c23)cc1F` (stereo not given) [US8962648, 359], the IC50 is reported as 0.92 nM.
`CC[C@@H](c1ccc(-c2c(O)ccc3[nH]c(=O)c4sccc4c23)cc1)N(C)C` [US8962648, 1128] was tested, and the IC50 was 2.2 nM.
For `CC(C)(N)c1ccc(-c2c(O)cc(Cl)c3[nH]c(=O)c4sccc4c23)cc1` [US8962648, 334], the IC50 was 10 nM.
Work on `COc1cc(C)c2[nH]c(=O)c3sc(Cl)cc3c2c1-c1ccc([C@@H](C)CN)cc1` [US8962648, 1354] yielded an IC50 of 11 nM.
`Cc1cc(O)c(-c2ccc([C@@H](C)CN)cc2)c2c1[nH]c(=O)c1sc(Cl)cc12` [US8962648, 1353] gave an IC50 of 4 nM.
`C[C@H](CN(C)C)c1ccc(-c2c(O)ccc3[nH]c(=O)c4sccc4c23)cc1` [US8962648, 1172] gave an IC50 of 4 nM.
`CCC(N)c1ccc(-c2c(O)ccc3[nH]c(=O)c4sccc4c23)cc1` (stereo not given) [US8962648, 336] was tested, and the IC50 was 0.82 nM.
`NS(=O)(=O)c1ccc(-c2c(O)ccc3[nH]c(=O)c4sccc4c23)cc1` [US8962648, 65] showed an IC50 of 1.8 nM.
`Cc1cc2c(s1)c(=O)[nH]c1ccc(O)c(-c3ccc(CN)cc3)c12` [US8962648, 95] gave an IC50 of 4.4 nM.
`CNC[C@@H](C)c1ccc(-c2c(O)ccc3[nH]c(=O)c4sccc4c23)cc1` [US8962648, 1197] showed an IC50 of 2.8 nM.
Compound `CNCc1ccc(-c2c(O)ccc3[nH]c(=O)c4sccc4c23)cc1` [US8962648, 187] has an IC50 of 0.9 nM.
Compound `CCNCc1ccc(-c2c(O)ccc3[nH]c(=O)c4sccc4c23)cc1` [US8962648, 267] has an IC50 of 2 nM.
For `COc1cc(Cl)c2[nH]c(=O)c3sccc3c2c1-c1ccc(CCN)c(F)c1` [US8962648, 1218], the IC50 was 87 nM.
Compound `NCc1ccc(-c2c(O)cc(Cl)c3[nH]c(=O)c4sccc4c23)cc1` [US8962648, 329] has an IC50 of 16 nM.
Compound `CC(c1ccc(-c2c(O)c(F)c(F)c3[nH]c(=O)c4sccc4c23)cc1)N(C)C` (stereo not given) [US8962648, 341] has an IC50 of 34 nM.
`C[C@H](N)c1ccc(-c2c(O)ccc3[nH]c(=O)c4sccc4c23)cc1` [US8962648, 233] gave an IC50 of 0.81 nM.
`CC(NC1CCCC1)c1ccc(-c2c(O)ccc3[nH]c(=O)c4sccc4c23)cc1` (stereo not given) [US8962648, 314] showed an IC50 of 2.8 nM.
In the case of `CC[C@H](N)c1ccc(-c2c(OC)ccc3[nH]c(=O)c4sccc4c23)cc1` [US8962648, 1121], the IC50 is reported as 2.9 nM.
`COc1cc(C)c2[nH]c(=O)c3sc(C)cc3c2c1-c1ccc([C@@H](C)CN)cc1` [US8962648, 1341] was tested, and the IC50 was 38 nM.
`CCC(c1ccc(-c2c(O)ccc3[nH]c(=O)c4sccc4c23)cc1)N(C)C` (stereo not given) [US8962648, 339] gave an IC50 of 1.9 nM.
`CC(c1ccc(-c2c(O)ccc3[nH]c(=O)c4sccc4c23)cc1F)N(C)C` (stereo not given) [US8962648, 349] gave an IC50 of 1.9 nM.
Compound `COc1ccc2[nH]c(=O)c3sccc3c2c1/C=C/CN1CCC(N)CC1` [US8962648, 152] has an IC50 of 31 nM.
`NC1Cc2ccc(-c3c(O)ccc4[nH]c(=O)c5sccc5c34)cc2C1` (stereo not given) [US8962648, 345] showed an IC50 of 1.2 nM.
Work on `N#CCCc1ccc(-c2c(O)ccc3[nH]c(=O)c4sccc4c23)cc1` [US8962648, 290] yielded an IC50 of 3.2 nM.
`CCNCc1ccc(-c2c(OC)ccc3[nH]c(=O)c4sccc4c23)cc1` [US8962648, 269] gave an IC50 of 6 nM.
`Cc1cc(O)c(-c2ccc([C@@H](C)CN)cc2)c2c1[nH]c(=O)c1sc(F)cc12` [US8962648, 1383] gave an IC50 of 3.7 nM.
`CC(C)(CN)c1ccc(-c2c(O)ccc3[nH]c(=O)c4sccc4c23)cc1` [US8962648, 277] was tested, and the IC50 was 0.67 nM.
For `C[C@@H](N)c1ccc(-c2c(O)cc(Br)c3[nH]c(=O)c4sccc4c23)cc1` [US8962648, 1123], the IC50 was 33 nM.
Work on `CCC(CN)c1ccc(-c2c(O)ccc3[nH]c(=O)c4sccc4c23)cc1` (stereo not given) [US8962648, 1309] yielded an IC50 of 0.74 nM.
With `NCc1ccc(-c2c(O)ccc3[nH]c(=O)c4sccc4c23)s1` [US8962648, 266] the IC50 was 0.78 nM.
In the case of `CN[C@@H](C)c1ccc(-c2c(O)cc(Cl)c3[nH]c(=O)c4sccc4c23)cc1` [US8962648, 1087], the IC50 is reported as 19 nM.
For `CNCCc1ccc(-c2c(O)cc(Cl)c3[nH]c(=O)c4sccc4c23)cc1` [US8962648, 1165], the IC50 was 58 nM.
`CN[C@H](C)c1ccc(-c2c(O)cc(Br)c3[nH]c(=O)c4sccc4c23)cc1` [US8962648, 1135] showed an IC50 of 30 nM.
`CC(=O)c1ccc(-c2c(O)ccc3[nH]c(=O)c4sccc4c23)cc1` [US8962648, 296] was tested, and the IC50 was 23 nM.
For `CC(c1ccc(-c2c(O)ccc3[nH]c(=O)c4sccc4c23)cc1)N(C)C` (stereo not given) [US8962648, 192], the IC50 was 1.6 nM and 1.9 nM.
With `O=c1[nH]c2ccc(O)c(-c3ccc(S(=O)(=O)NCCCl)cc3)c2c2c1CCC2` [US8962648, 1145] the IC50 was 13 nM.
Work on `CCN(CC)CCNCCCOc1ccc(-c2c(OC)ccc3[nH]c(=O)c4sccc4c23)cc1` [US8962648, 145] yielded an IC50 of 47 nM.
Compound `Cc1cc(O)c(-c2ccc(C(C)(C)N)cc2)c2c1[nH]c(=O)c1sccc12` [US8962648, 1330] has an IC50 of 8.3 nM.
With `CC(c1ccc(-c2c(O)ccc3[nH]c(=O)c4sccc4c23)cc1)N1CCCC1` (stereo not given) [US8962648, 194] the IC50 was 2.8 nM.
Compound `COc1cc(F)c2[nH]c(=O)c3sccc3c2c1-c1ccc(CN)cc1` [US8962648, 257] has an IC50 of 26 nM.
Work on `COc1ccc2[nH]c(=O)c3sccc3c2c1-c1ccc(C(C)CN)cc1` (stereo not given) [US8962648, 373] yielded an IC50 of 3.2 nM.
For `O=c1[nH]c2ccc(O)c(-c3ccc4cn[nH]c4c3)c2c2ccsc12` [US8962648, 61], the IC50 was 3.5 nM.
With `CC[C@H](c1ccc(-c2c(O)ccc3[nH]c(=O)c4sccc4c23)cc1)N(C)C` [US8962648, 1151] the IC50 was 2.5 nM.
With `Cc1cc(O)c(-c2ccc(C3(CN)CC3)cc2)c2c1[nH]c(=O)c1sccc12` [US8962648, 1254] the IC50 was 9.6 nM.
`NCCc1ccc(-c2c(O)ccc3[nH]c(=O)c4sccc4c23)cc1` [US8962648, 176] was tested, and the IC50 was 1.2 nM and 1.1 nM.
For `NCCc1cc(Br)c(-c2c(O)ccc3[nH]c(=O)c4sccc4c23)cc1O` [US8962648, 1224], the IC50 was 6.4 nM.
Compound `O=c1[nH]c2ccc(O)c(-c3ccc(S(=O)(=O)NCCBr)cc3)c2c2c1CCC2` [US8962648, 1094] has an IC50 of 10 nM.
For `Cc1cc(O)c(-c2ccc(C3(CN(C)C)CCC3)cc2)c2c1[nH]c(=O)c1sccc12` [US8962648, 1372], the IC50 was 42 nM.
